Reference: patent publication US10342767B2, “Therapy for kinase-dependent malignancies” (CHILDREN'S HOSPITAL MEDICAL CENTER, priority 2011, dated 2019)
Entries after “also recorded” stand apart in the source; their conditions may differ. Structures can show the parent of a compound that is named as a salt.

Columns and labels:
K562 = assay: Survival of K562 cells treated with imatinib with or without erythropoietin; format: cell-based, human; details: erythropoietin treatment
[1] = system: Fos, Dusp1, and Zfp36 expression; assay: Real-time qPCR of Fos, Dusp1 and Zfp36 in BaF3-BA cells; format: cell-based, mouse
Method: Real-time qPCR analysis. Candidate genes picked by microarray analysis were validated by real time qPCR. Total RNA was isolated as described above. The RNA was first subjected to DNase treatment using DNA-free DNase kit (Ambion, Life technologies). 2 μg of total RNA was converted to cDNA with Superscript III first-strand synthesis kit (Life technologies). qPCR reactions were performed with the human gene-specific primers using the SYBR green method and using a Mastercycler RealPlex2 instrument (Eppendorf). All PCR reactions were performed in triplicate and the real-time data was normalized to β-actin expression.

[2] = system: CML CD34+ cells from patient CP4; assay: Mouse model of CML with patient-derived CD34+ cells; format: in vivo, human; details: treatment for 3 weeks; imatinib 75 mg/kg, DFC and BCI 10 mg/kg twice daily i.p.
Method: To extend these findings to human cells, we tested the effect of c-FOS and DUSP1 inhibition on the survival of primary CML patient samples (Table 2).
Mouse models of CML with patient-derived cells. 3 million CD34+ cells from CML patient CP4 (described in Table 1) were transplanted into sublethally irradiated 8-week-old NSG mice. 2 weeks after transplantation, leukemic engraftment in bone marrow was determined by FACS using mouse and human specific antibodies against CD45. […] Drugs were diluted in PBS (vehicle) and administered by intraperitoneal injection twice daily. […]

[3] = system: CML patient cells (CP1, CP4); assay: LTC-IC assay, CML patient samples; format: cell-based, human
Method: LTC-IC assay. The LTC-IC assay was performed according to the instruction manual of StemCell Technologies. […] After 24 h, the cells were washed in human long-term culture medium (HLTM; MyeloCult H5100 media containing 1 μM hydrocortisone) and were plated on irradiated MS-5 stromal cells. Cultures were maintained for 5 weeks with weekly half-medium changes. Cells were then harvested, counted, and transferred to methylcellulose-containing media (MethoCult Express, StemCell Technologies) for colony-forming assays. At the end of week 5, adherent and nonadherent cells were isolated and plated in methylcellulose (METHOCULT H4434 classic, stem cell technology) for CFU analysis in triplicate. Plates were incubated at 37° C., and colonies were scored 2 weeks after plating.

BaF3-BA cells = assay: Cell proliferation/survival assay of BaF3 cells expressing BCR-ABL (WST-1); format: cell-based, mouse; details: inhibitor 500 nM
AU565 = AU565 dose response / cell survival (WST assay); format: cell-based; details: neuregulin 1-NRG1
Method: (§1) Cell-proliferation assay. […] The cells were incubated for 60 h.
(§2) Time at 0 hours represents the level of expression without TKI+/−GF. Note that the growth factors induce higher expression of c-FOS in all cell lines and DUSP1 in RT4 at 0 hours, while the addition of both TKI and growth factors induced both c-FOS and DUSP1. […] Note inhibition of c-FOS and DUSP1 is sufficient to kill AU565 cells, while their inhibition in RT4 and SKMEL28 cells restored the TKI sensitivity in the presence of growth factors.

RT4 = RT4 dose response / cell survival (WST assay); format: cell-based; details: EGF
Method: as §1, §2

SKMEL28 = SKMEL28 dose response / cell survival (WST assay); format: cell-based; details: HGF
Method: as §1, §2

EGFR = details: NSCLC patients with activating EGFR mutations; cited from earlier work
Dusp1 = assay: In vitro BCI-resistance screening of randomly mutagenized Dusp1 in BaF3-BA cells; format: cell-based, mouse
Method: To determine the relevant target of BCI more conclusively, we performed in vitro drug-resistant screening to select for BCI-resistant mutations in Dusp1. BaF3-BA cells transfected with an expression library of randomly mutagenized Dusp1 construct were used for the selection of mutations conferring resistance to different concentrations of BCI (FIG. 19D). […] 27 clones that emerged in 1.5 μM of BCI were randomly selected and further analyzed. Dose-response analysis confirmed their resistance to BCI (FIG. 19F). Sequencing of the Dusp1 gene in these clones identified four different substitution mutations (E19R, C24G, V83G, and E112R) and two deletion mutations at the N terminus (Δ2-8 and Δ2-28; FIG. 19G). Because most resistant clones carried two or more mutations, we generated clones with individual mutations for further analysis. […] Furthermore, an unbiased docking of BCI using a structural model of the Dusp1 rhodanese domain identified the putative site to which BCI binds, with a predicted free energy of ΔG=−7.63 (FIG. 18E).
Random mutagenesis and screening of Dusp1 mutants. A Gateway entry clone containing mouse Dusp1 complementary DNA was purchased from the Harvard PalsmiD repository (cat. #MmCD00312825). The Dusp1 coding region was transferred into the retroviral gateway vector pMSCV-Ires-GFP.GW59 by recombination cloning. […] Mutants isolated in the screen were engineered into the pMSCV-Dusp1-Ires-GFP vector, using the QuikChange II XL Site-Directed Mutagenesis Kit (Agilent). The sequence of each point mutation was confirmed by sequence analysis.

phospho-p38 = assay: Pharmacodynamic phospho-p38 analysis in leukemic mice; format: in vivo, mouse; details: peripheral blood mononuclear cells, 6 h after BCI 10 mg/kg i.p.
Method: Pharmacodynamic analysis of Dusp1 and c-Fos targets. Phospho-p38 analysis. Three leukemic mice (8-12 weeks old), which had received transplants of BCR-ABL-expressing Kit+ cells, were injected with BCI (10 mg/kg) by intraperitoneal injection 4 weeks after transplantation. Phospho-p38 levels were quantified in peripheral blood MNCs using the Phosflow kit (BD Biosciences), according to the supplier's instructions. In brief, blood was collected from each mouse before and 6 hours after drug injection. Mononuclear cells were isolated by RBC depletion: RBCs were lysed twice using 4 ml Pharmlyse solution (BD Biosciences) per 100 μl of peripheral blood by mixing and incubated on ice for 5 min. After the second lysis step, cell pellets were washed with 1 ml 2% BSA in PBS followed by fixation using 100 μl of fixation and permeabilization solutions (BD Biosciences) for 20 min at 4° C. in the dark. The pellets were washed with 1 ml of 1×BD Perm/wash buffer. After fixation, the cells were blocked using 300 μl 2% BSA in Perm/wash buffer (BD Biosciences) at room temperature for 20 min. […] Data were acquired by FACS on Fortessa instrument, and the data were analyzed by FlowJo software. The mean fluorescence intensity (MFI) of the IgG control was deducted from the MFI of the experimental samples. […] Quantitative gene-expression analysis of target genes. […]

phospho-p38, p-JNK = assay: Immunoblot of MAPK signaling in BaF3 and BaF3-BA cells; format: cell-based, mouse; details: with or without IL-3
Method: Western blotting. 4-6 million cells were collected, and whole-cell extracts were prepared using lysis buffer supplemented with a protease-inhibitor cocktail (Roche) and phosphatase-inhibitor cocktail 2 (Sigma-Aldrich), as described previously (Azam, M., Seeliger, M. A., Gray, N. S., Kuriyan, J. & Daley, G. Q. Activation of tyrosine kinases by mutation of the gatekeeper threonine. Nat. Struct. Mol. Biol. 15, 1109-1118 (2008)). The proteins were resolved on 10% SDS-PAGE gels and transferred to nitrocellulose membranes (Bio-Rad). Membranes were blocked in TBST with 5% nonfat milk and probed with appropriate antibodies as indicated. Densitometry was carried out using ImageJ software.

HCC827 cells = assay: HCC827 cell survival (WST assay); details: DFC, BCI and erlotinib alone and in combination
[4] = mouse, in vivo; cited from earlier work

## Cc1ccc(NC(=O)c2ccc(CN3CCN(C)CC3)cc2)cc1Nc1nccc(-c2cccnc2)n1 [Imatinib, Imatinib mesylate]
K562
  response to imatinib with erythropoietin: conferred imatinib resistance
[1]; imatinib alone
  expression of Fos, Dusp1 and Zfp36: downregulated
[1]; imatinib plus growth factor (IL-3)
  higher expression of Fos, Dusp1 and Zfp36 as compared to BaF3-BA plus imatinib: 4-5 fold
[2]
  effect on human leukemic cells in bone marrow: ineffective
[3]; CP1 cells
  LTC-IC activity as compared to vehicle: increased
[3]; sample CP4
  LTC-IC activity as compared to vehicle: significant decrease

## Oc1ccc(-c2nc(-c3ccncc3)c(-c3ccc(F)cc3)[nH]2)cc1 [SB202190]
BaF3-BA cells
  imatinib resistance conferred by inhibitor: conferred imatinib resistance

## CS(=O)(=O)CCNCc1ccc(-c2ccc3ncnc(Nc4ccc(OCc5cccc(F)c5)c(Cl)c4)c3c2)o1 [lapatinib]
AU565
  response to lapatinib in the presence of growth factor: resistance
RT4
  response to lapatinib in the presence of growth factor: resistance

## CCCS(=O)(=O)Nc1ccc(F)c(C(=O)c2c[nH]c3ncc(Cl)cc23)c1F [PLX4720]
SKMEL28
  response to PLX4720 in the presence of growth factor: resistance

## C#Cc1cccc(Nc2ncnc3cc(OCCOC)c(OCCOC)cc23)c1 [erlotinib]
EGFR
  response rate: approximately 70%

## O=C1/C(=C/c2ccccc2)C(NC2CCCCC2)c2ccccc21 (stereo not shown) [BCI, (E)-2-benzylidene-3-(cyclohexylamino)-2,3-dihydro-1H-inden-1-one]
Dusp1; 1 μM BCI
  frequency of resistant clones: 1,200 clones per million cells
Dusp1; 1.5 μM BCI
  frequency of resistant clones: 27 clones per million cells
Dusp1; 2 μM of BCI
  frequency of resistant clones: did not yield any resistant clones
phospho-p38
  increase in phospho-p38 levels: 4-8 fold
phospho-p38, p-JNK; BaF3-BA cells
  phospho-JNK: decreased
phospho-p38, p-JNK; BaF3 and BaF3-BA cells
  phospho-p38 levels: enhanced; also recorded: increased
HCC827 cells
  cell survival: sensitized the cells for erlotinib

## COc1cc(/C=C/C(=O)C(=Cc2ccc(F)c(F)c2)C(=O)/C=C/c2ccc(O)c(OC)c2)ccc1O [DFC, difluorinated curcumin]
[4]
  pharmacokinetics relative to curcumin: superior pharmacokinetics
